Assay results published in patent US20080160009A1, “Inhibiting Cav3 Isoforms and the 25B Splice Varients for the Diagnosis and Treatment of Cancer” (priority 2004, published 2008).

System: human PC3 prostate cancer cells
Assay: Lifespan of SCID mice inoculated with human PC3 prostate cancer cells
Assay type: in vivo

COc1ccc(CCN2CCC[C@H]2COC(c2ccccc2)c2ccc(Cl)cc2)cc1 (stereo partly shown) [TH-1177]
lifespan: significantly extended the lifespan
